From US20250092399A1, “GENE THERAPY TARGETING THE NEONATAL FORM OF NAV1.5 FOR TREATING CANCER” (Celex Oncology Innovations Limited, priority 2018, published 2025)
“And” between values parts separate entries of the source, which are not always exact repeats. Equal entries are not always repeated. Where two headings read alike, the source gives them in different places.

Columns and labels:
[1] = tested on: SW620 cells; assay: Matrigel invasion assay; type: cell-based, human; settings: for reduction in number of invaded cells compared to c-siRNA: 40 nM siRNA, invasion over 48 h
Method: For hypoxia, cells were maintained as above but in 1% O2 for up to 120 h in a dedicated incubator (Micro Galaxy, RS Biotech Laboratory Equipment Ltd, Irvine, UK).
(§1) Lipofectamine 2000 reagent (Invitrogen) was used as the transfection agent and the protocol was applied according to the manufacturer's instructions. […] Electrophysiological recordings of siRNA-treated cells were also performed in parallel at given time points and in random order. For these treatments, recordings were made from 19-37 cells from ≥4 different transfections with matching controls.
Thus, (i) insert filters (with 8 μm pores) were coated with 50 µl of 0.21 mg/ml Matrigel (BD Biosciences, Bedford, MA, USA); (ii) the chemotactic gradient was 0.1-10% FBS; and (iii) the cells were serum-starved for 24 hours and (iv) 10^5 cells were seeded onto each filter. After 48 hours, the insert was swabbed and then stained with crystal violet. The invaded cells in 12 non-overlapping fields of view were counted under ×400 magnification. […] Each treatment condition was tested 5-8 times.

[2] = tested on: nNav1.5 mRNA; assay: Real-time RT-PCR of nNav1.5 mRNA levels in SW620 cells; type: cell-based, human; settings: for decrease in nNav1.5 mRNA levels in comparison to c-siRNA: 40 nM siRNA, 90 h after transfection
Method: Steps for polymerase chain reactions (PCRs) were as described before (Fraser et al., 2005). Conventional PCRs were performed using HotStarTaq Plus technology (Qiagen Ltd, Manchester, UK) in a Primus PCR machine (MWG-Biotech, Eurofins Genomics, Ebersberg, Germany). Quantitative real-time PCRs were carried out utilising SYBR Green technology (Qiagen) and a DNA Engine Opticon 2 system (MJ Research, Bio-Rad Laboratories Ltd, Hamel Hempstead, UK). Duplicate reactions on each sample were carried out simultaneously for target and reference genes. Control PCRs were carried out routinely by including non-target (-RT) reactions and monitoring melting curves. The primer pairs used were as follows:
The mRNA levels were quantified using the comparative 2^−ΔΔC(t) method (Livak and Schmittgen, 2001).
as §1

[3] = tested on: VGSC currents (nNav1.5 / aNav1.5) in SW620 cells; assay: Whole-cell patch-clamp recording of VGSC currents in siRNA-transfected SW620 cells; type: cell-based, human; settings: for proportion of cells demonstrating VGSC currents / peak VGSC current density: SW620 cells after siRNA transfection; for peak VGSC current density: median (25%-75% interquartile range); for Activation V1/2 (half-activation voltage) / Activation k (activation slope factor) / Inactivation V1/2 (half-inactivation voltage) / Inactivation k (inactivation slope factor) / Tinactivation (inactivation time constant) / Tpeak (time to peak): SW620 cells, 40 nM siRNA, 96 h transfection, 24 h serum starvation, mean ± SEM
Description: Details of the patch pipettes, solutions, and the whole-cell recording protocols were as described previously (e.g. Laniado et al., 1997; 2001; Fraser et al., 2003a; Grimes et al, 1995). In brief, patch pipettes (tip resistances, ˜5 M Ω) were filled with a solution designed to block the outward K^+ currents; the composition was as follows (in mM): NaCl 5, CsCl 145, MgCl2 2, CaCl2) 1, HEPES 10 and EGTA 11, adjusted to pH 7.4 with 1 M CsOH. The estimated intracellular free Ca^2+ concentration was ˜15 nM (Laniado et al., 2001). Whole-cell membrane currents were recorded from cells that appeared ‘isolated’ in culture, using an Axopatch 200B amplifier (Axon Instruments, CA, USA). Analogue signals were filtered at 10 kHz using a low-pass Bessel filter, and series resistance errors were compensated by >90%. Electrophysiological signals were sampled at 50 kHz and digitised using an interface (Digidata 1200). Data acquisition and analysis of whole-cell currents were performed using pClamp software (Axon Instruments). A holding potential of −100 mV was applied, unless indicated otherwise. Standard voltage-clamp protocols were used to study the electrophysiological properties of the VGSC currents. There was a noticeable decrease in current amplitude with time in culture, also apparent in immunocytochemistry (FIG. 7). All routine recordings were done 24 hours after (re) plating and 24 hours of serum starvation (to match the condition of the invasion assays).
Conductance-voltage relationships were determined using the equation:
[formula] • where G is the conductance; I the current amplitude; V the test pulse; and Vrev the theoretical Na^+ reversal potential. Normalized curves for voltage dependence of steady-state activation and inactivation were fitted to a Boltzmann function of the form:
[formula] • where Gmax is the maximal conductance; Vm is the membrane voltage; V1/2 is the voltage at which the current is half activated/inactivated, and k is the slope factor of voltage sensitivity. For the time course of recovery from inactivation, the data was plotted as a function of recovery time and fitted to the following single exponential equation:
[formula] • where I is normalized current, t is time, t is the time constant, A is the amplitude of the normalized current, and C is the asymptote. More details can be found in Onkal et al. (2008).
as §1

[4] = tested on: SW620 cells; assay: Cell viability (trypan blue exclusion) and proliferation (MTT); type: cell-based, human
Method: Cellular viability (toxicity) and proliferation were quantified as described previously (Fraser et al., 1999, 2003b; Grimes et al., 1995). Briefly, cells were seeded into 35 mm plates at 3.5×10^4/plate (for toxicity) or 24-well plates at 2× 10^4/well (for proliferation) and allowed to settle overnight. The cells were incubated under control conditions or treated with the drug, with a change of medium every 24 h. Cell viability was determined by trypan blue exclusion assay. Proliferation was determined by the colorimetric 3-(4,5-dimethylthiazol-2-yl)-2,5-diphenyltetrazolium bromide (MTT) assay. A ‘standard curve’ was constructed showing linearity over the experimental range. Each biological repeat (treatment and control) was performed in triplicate.

[5] = tested on: Nav1.5 splice variant (neonatal and adult); settings: cited from earlier work
[6] = tested on: nNav1.5 protein; assay: Western blot of nNav1.5 protein expression (NESO-pAb); type: cell-based, human
Method: Cells were washed with PBS containing 0.5 mM NaF, 0.1 mM Na3 VO4 (Sigma-Aldrich) and lysed in RIPA buffer (0.5M Tris-HCl, pH 7.4, 1.5M NaCl, 2.5% deoxycholic acid, 10% NP-40, 10 mM EDTA) (Merck-Millipore Ltd, Watford, UK) supplemented with an EDTA-free protease inhibitor cocktail (Roche Products Ltd, Welwyn Garden City, UK). Then, cells were vortexed for 30 mins at 4° C. The lysate was centrifuged (15,000 g) at 4° C. and supernatant collected for measurement of the protein concentration by a standard Bradford assay (Bio-Rad protein assay, Bio-Rad). After 15 minutes at 70° C. in SDS loading buffer (62.5 mM Tris-HCl, 20% glycerol, 2% SDS, 100 mM DTT, 0.0025% bromphenol blue, 10% B-mercaptoethanol; pH 6.8), 50 μg of protein per lane was separated by 7.5% SDS-polyacrylamide gel electrophoresis and electroblotted onto 0.45 μm nitrocellulose membrane (Thermo Scientific). Equal protein loading was controlled by Ponceau S staining (Sigma-Aldrich). Membranes were ‘blocked’ with 5% bovine serum albumin (BSA) in TBS+0.1% Tween-20 for 1 hour and probed for 20 hours with the following primary antibodies (diluted in TBS+0.1% Tween 20+1% BSA): i) NESO-pAb antibody for nNav1.5 (1 μl/ml); and (ii) anti-actinin antibody (1 μl/ml) as loading control (Sigma-Aldrich). […]

[7] = molecular target: persistent current, INaP, of VGSC, especially Nav1.5 (Canis lupus familiaris, UniProt Q865W3); settings: Antzelevitch et al., 2004; read-out: IC50 for block of hypoxia-induced persistent current INaP; cited from earlier work
Chain of persistent current, INaP, of VGSC, especially Nav1.5 (Q865W3 1-2013): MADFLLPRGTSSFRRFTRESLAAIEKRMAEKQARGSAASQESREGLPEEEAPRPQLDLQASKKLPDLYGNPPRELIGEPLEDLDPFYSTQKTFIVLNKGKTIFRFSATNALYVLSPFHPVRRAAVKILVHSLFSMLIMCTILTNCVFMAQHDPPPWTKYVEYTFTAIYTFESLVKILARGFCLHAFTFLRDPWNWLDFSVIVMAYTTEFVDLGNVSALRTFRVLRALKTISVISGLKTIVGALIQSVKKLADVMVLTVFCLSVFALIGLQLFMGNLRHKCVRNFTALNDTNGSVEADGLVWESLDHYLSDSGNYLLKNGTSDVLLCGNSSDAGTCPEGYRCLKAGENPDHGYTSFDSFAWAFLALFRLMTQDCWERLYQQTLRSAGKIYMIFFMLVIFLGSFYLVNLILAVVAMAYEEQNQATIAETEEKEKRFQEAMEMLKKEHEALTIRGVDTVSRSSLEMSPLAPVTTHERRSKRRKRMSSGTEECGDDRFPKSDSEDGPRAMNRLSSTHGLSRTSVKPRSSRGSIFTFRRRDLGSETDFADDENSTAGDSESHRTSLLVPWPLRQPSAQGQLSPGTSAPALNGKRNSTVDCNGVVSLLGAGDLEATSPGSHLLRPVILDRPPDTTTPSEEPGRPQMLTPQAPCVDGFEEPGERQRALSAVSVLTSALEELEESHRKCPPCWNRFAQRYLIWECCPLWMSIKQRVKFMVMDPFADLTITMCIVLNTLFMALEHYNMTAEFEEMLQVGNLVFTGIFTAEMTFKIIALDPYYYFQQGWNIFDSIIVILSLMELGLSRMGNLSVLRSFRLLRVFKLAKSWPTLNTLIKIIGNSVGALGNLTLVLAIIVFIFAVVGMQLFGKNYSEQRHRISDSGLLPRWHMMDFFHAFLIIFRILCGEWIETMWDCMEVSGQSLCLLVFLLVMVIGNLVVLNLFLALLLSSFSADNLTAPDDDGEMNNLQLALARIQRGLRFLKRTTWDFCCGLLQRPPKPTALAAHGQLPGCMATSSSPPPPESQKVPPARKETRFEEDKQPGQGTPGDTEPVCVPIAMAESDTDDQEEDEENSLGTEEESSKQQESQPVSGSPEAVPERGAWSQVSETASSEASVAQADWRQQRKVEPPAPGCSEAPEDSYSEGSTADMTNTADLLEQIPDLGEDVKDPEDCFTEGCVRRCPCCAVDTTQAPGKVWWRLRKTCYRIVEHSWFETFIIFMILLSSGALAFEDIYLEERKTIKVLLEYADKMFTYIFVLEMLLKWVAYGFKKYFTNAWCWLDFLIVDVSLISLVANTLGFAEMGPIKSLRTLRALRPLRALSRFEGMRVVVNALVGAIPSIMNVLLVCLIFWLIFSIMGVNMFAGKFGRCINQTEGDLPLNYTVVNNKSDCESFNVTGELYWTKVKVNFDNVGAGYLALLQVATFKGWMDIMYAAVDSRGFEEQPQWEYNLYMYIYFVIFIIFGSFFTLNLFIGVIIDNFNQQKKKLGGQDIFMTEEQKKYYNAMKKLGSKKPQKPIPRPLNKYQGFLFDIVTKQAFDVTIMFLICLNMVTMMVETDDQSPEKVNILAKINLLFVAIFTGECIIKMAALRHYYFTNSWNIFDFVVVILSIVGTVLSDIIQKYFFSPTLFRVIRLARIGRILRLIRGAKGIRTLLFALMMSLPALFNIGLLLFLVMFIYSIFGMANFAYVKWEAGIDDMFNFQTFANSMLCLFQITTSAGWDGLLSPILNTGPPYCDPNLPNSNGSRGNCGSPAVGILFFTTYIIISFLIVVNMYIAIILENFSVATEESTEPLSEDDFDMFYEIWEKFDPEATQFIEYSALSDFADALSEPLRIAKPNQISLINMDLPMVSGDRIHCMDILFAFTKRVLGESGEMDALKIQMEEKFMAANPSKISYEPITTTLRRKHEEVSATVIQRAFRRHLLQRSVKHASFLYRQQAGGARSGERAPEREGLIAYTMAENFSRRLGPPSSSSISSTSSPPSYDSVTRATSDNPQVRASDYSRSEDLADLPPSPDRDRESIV

Question: Which “reduction in number of invaded cells compared to c-siRNA” value ([1]; SW620 cells, normoxia) does the source give for GAGUCCUGAGAGCUCUAAA [n3-siRNA] here?
Answer: 73%

Question: What about the “hypoxia-induced increase in invasiveness” value ([1]; SW620 cells, hypoxia 1% O2 72 h, siRNA-treated) of the same compound?
Answer: completely suppressed

Question: And the “decrease in nNav1.5 mRNA levels in comparison to c-siRNA” value ([2]; SW620 cells)?
Answer: 32±10%

Question: And the “proportion of cells demonstrating VGSC currents” value [3]?
Answer: 51%

Question: And the “peak VGSC current density” value [3]?
Answer: 1.0 (0-6.8) pA/pF

Question: What about the “Activation V1/2 (half-activation voltage)” value [3] of the same compound?
Answer: −24.7 ± 2.0 mV

Question: What about the “Activation k (activation slope factor)” value [3] of the same compound?
Answer: 6.1 ± 0.3 mV

Question: What about the “Inactivation V1/2 (half-inactivation voltage)” value [3] of the same compound?
Answer: −86.5 ± 1.2 mV

Question: And the “Inactivation k (inactivation slope factor)” value [3]?
Answer: −5.0 ± 0.4 mV

Question: What about the “Tinactivation (inactivation time constant)” value [3] of the same compound?
Answer: 0.80 ± 0.10 ms

Question: And the “Tpeak (time to peak)” value [3]?
Answer: 0.66 ± 0.04 ms

Question: What does the source list for UAUCAUGGCGUAUGUAUCA [n2-siRNA]?
Answer: reduction in number of invaded cells compared to c-siRNA ([1]; SW620 cells, normoxia): 45%; decrease in nNav1.5 mRNA levels in comparison to c-siRNA ([2]; SW620 cells): 85±10%; proportion of cells demonstrating VGSC currents [3]: 33%; peak VGSC current density [3]: 0.0 (0-2.4) pA/pF

Question: For “AGGUAGUGUAAUCGCCUUG (listed as RNA, chemistry not given here) [c-siRNA, non-targeting control siRNA supplied by Eurofins]”, which effect on invasiveness ([1]; SW620 cells, normoxia or hypoxia (1% O2, 72 h)) is on record?
Answer: no effect

Question: With CUAGGCAAUUUGUCGGCUC [n1-siRNA] as the compound, how does the “reduction in number of invaded cells compared to c-siRNA” value ([1]; SW620 cells, normoxia) read?
Answer: 64%

Question: What about the “decrease in nNav1.5 mRNA levels in comparison to c-siRNA” value ([2]; SW620 cells) of the same compound?
Answer: 50±12%

Question: And the “proportion of cells demonstrating VGSC currents” value [3]?
Answer: 42%

Question: What about the “peak VGSC current density” value [3] of the same compound?
Answer: 0.0 (0-3.1) pA/pF

Question: Which “effect of TTX on invasiveness” value [1] does the source give for `NC1=N[C@H](O)[C@H]2[C@H]3O[C@]4(O)O[C@@H]([C@@H](O)[C@@]2(N1)[C@@H]4O)[C@]3(O)CO` [TTX, Tetrodotoxin] here?
Answer: no effect

Question: What about the effect on invasiveness [1] of the same compound?
Answer: no effect

Question: And the “reduction of invasiveness by TTX” value [1]?
Answer: 32% and 34%

Question: And the “reduction of invasiveness cf. hypoxia control” value [1]?
Answer: 45%

Question: And the inhibition of invasiveness ([1]; 20 µM)?
Answer: 37%

Question: What about the effect on proliferation [4] of the same compound?
Answer: not affected

Question: And the “effect on hypoxia-induced increase of nNav1.5 mRNA expression” value [2]?
Answer: blocked this increase

Question: And the “effect on nNav1.5 mRNA expression” value [2]?
Answer: Lack of effect

Question: And the “block of currents generated by either Nav1.5 splice variant” value [5]?
Answer: > 80%

Question: What about the “effect on nNav1.5 protein expression” value [6] of the same compound?
Answer: no effect

Question: Which results are given for “GUCUCAGCCUUACGCACCU (listed as RNA, chemistry not given here) [a-siRNA, siRNA targeting 'adult' Nav1.5 (aNav1.5)]”?
Answer: reduction in number of invaded cells compared to c-siRNA ([1]; SW620 cells, normoxia): 17%; proportion of cells demonstrating VGSC currents [3]: 58%; peak VGSC current density [3]: 3.5 (0-7.5) pA/pF; Activation V1/2 (half-activation voltage) [3]: −28.1 ± 1.7 mV; Activation k (activation slope factor) [3]: 6.7 ± 0.6 mV; Inactivation V1/2 (half-inactivation voltage) [3]: −95.6 ± 2.1 mV; Inactivation k (inactivation slope factor) [3]: −6.7 ± 0.7 mV; Tinactivation (inactivation time constant) [3]: 1.35 ± 0.19 ms; Tpeak (time to peak) [3]: 0.90 ± 0.06 ms

Question: For `COc1ccccc1OCC(O)CN1CCN(CC(=O)Nc2c(C)cccc2C)CC1` (stereo not drawn) [ranolazine], which “reduction in invasion cf. hypoxia control” value ([1]; 5 μM, hypoxia (1% O2, 72 h), SW620 cells) is on record?
Answer: 37%

Question: And the reduction in invasion ([1]; 5 μM, normoxia, SW620 cells)?
Answer: 9%

Question: What about the “inhibition of invasion, dose dependence” value ([1]; 1-10 μM, hypoxia, control/c-siRNA-treated SW620 cells) of the same compound?
Answer: dose-dependent manner with two-fold difference over 1-10 μM

Question: What about the “effect on invasiveness in cells pre-treated with n3-siRNA” value ([1]; up to 10 μM, hypoxia, n3-siRNA pre-treated SW620 cells) of the same compound?
Answer: no additional effect

Question: What about the effect on proliferation ([4]; up to 10 µM, normoxia or hypoxia (not shown)) of the same compound?
Answer: not affected

Question: And the “effect on hypoxia-induced increase of nNav1.5 mRNA expression” value ([2]; 5 μM, hypoxia 1% O2 48 h, SW620 cells)?
Answer: blocked this increase

Question: What about the “effect on nNav1.5 mRNA expression” value ([2]; 5 μM, normoxia, SW620 cells) of the same compound?
Answer: Lack of effect

Question: What about the IC50 [7] of the same compound?
Answer: 5.9 µM

Question: And the “effect on nNav1.5 protein expression” value ([6]; 5 μM, normoxia and hypoxia, SW620 cells)?
Answer: no effect
